US20250186600A1, “EXCIPIENT COMPOUNDS FOR PROTEIN FORMULATIONS” (Comera Life Sciences, Inc., priority 2020, published 2025)
Where a name gives a salt, the structure may show the parent alone. Values belong to the compound of their own block, whether it stands above or below them.

Experiments:
[1] = Table 13; versus 79.7 cP with no excipient
ustekinumab [2] = assay: Urea denaturation, Sypro orange fluorescence (Example 44); assay type: physicochemical; conditions: excipient 5 mg/mL, ustekinumab 1 mg/mL, 6M urea, 20 mM histidine pH 6.0, Sypro orange fluorescence
ustekinumab [3] = assay: Thermal stability at 65° C., monomer by SE-HPLC (Example 46); assay type: physicochemical; conditions: excipient 5 mg/mL, ustekinumab 1 mg/mL, 20 mM histidine pH 6.0, incubated at 65° C.
Text: Therapeutic proteins are frequently subjected to fluctuations in temperatures which may lead to changes in tertiary and secondary structural elements. This can lead to aggregation of the protein and decrease the amount of active native protein. […] All excipients used in this Example, listed in Table 47 below, were of the highest purity, and were obtained from Sigma Aldrich (St. Louis, MO) or Cayman Chemical (Ann Arbor, MI).

ustekinumab [4] = assay: Stabilization at low pH, Sypro orange fluorescence (Example 45); conditions: excipient 5 mg/mL, ustekinumab 1 mg/mL, glycine acidification buffer pH 2.6, Sypro orange fluorescence
ustekinumab [5] = assay: Thermal stability at 65 deg C., increase in percent monomer by SE-HPLC (Example 55); assay type: physicochemical; conditions: excipient 5 mg/mL, ustekinumab 1 mg/mL, 20 mM Histidine pH 6.0, 65 deg C., 120 min
Text: Therapeutic proteins are frequently subjected to fluctuations in temperatures, which may lead to changes in their tertiary and secondary structural elements. This leads to aggregation of the protein and a decrease in the active native species.

ustekinumab-FITC [6] = assay: Thermal stability of model ADC at 65° C. by SE-HPLC (Example 56); conditions: excipient 5 mg/mL, ustekinumab-FITC 1 mg/mL, 20 mM Histidine pH 6.0, 65° C.
omalizumab [7] = assay: Freeze-thaw stability, light scattering at 350 nm (Example 48); assay type: physicochemical; conditions: excipient 5 mg/mL, omalizumab 5 mg/mL, 20 mM histidine pH 6.0, at least 5 freeze (−80° C.)/thaw cycles
omalizumab [8] = assay: Freeze/thaw stress (6 cycles), monomer by SE-HPLC (Example 57); assay type: physicochemical; conditions: excipient 100 mM, omalizumab 2 mg/mL, 20 mM Histidine pH 6.0, freeze (−80° C.)/thaw
Method: Therapeutic proteins are frequently kept at low temperatures to improve their kinetic stability and minimize structural perturbations that could lead to the aggregation of the protein and a decrease in the active native species. In certain cases, this might be done by freezing the formulation until use. However, the low temperatures, concentration gradients, and ice formation during repeated freezing and thawing can stress the protein. […] The formulations were then aliquoted into 0.5 mL cryovials and frozen at −80° C. for 120 min. The samples were then thawed using a water bath kept at room temperature.

omalizumab [9] = assay: Mechanical shear stress (agitation 72 h), absorbance at 350 nm (Example 47); assay type: physicochemical; conditions: excipient 0.5 mg/mL, omalizumab 2 mg/mL, 22° C., 72 h agitation at 300 rpm
infliximab [10] = assay: Thermal stability at 50° C. with caffeine and excipients, SE-HPLC (Example 63); assay type: physicochemical; conditions: excipient 0.5 M, caffeine 50 mM, infliximab 10 mg/mL, 5 mM phosphate pH 7.5, 50° C., 180 min
Method: Therapeutic proteins stress leads to aggregation of the protein and a decrease in the active native species. […] The aliquots were withdrawn at 0 min, 90 min and 180 min. […] Diode array detector.

pembrolizumab = assay: Thermal stability of pembrolizumab at 40 C for 4 weeks, SE-HPLC (Example 70); conditions: Excipient added at 400 mM; pembrolizumab 10 mg/ml, 5 mM phosphate pH 7.5, 40 C for 4 weeks
nivolumab = assay: Thermal stability of nivolumab at 40 C for 4 weeks, SE-HPLC (Example 69); conditions: Excipient added at 400 mM; nivolumab 10 mg/ml, 5 mM phosphate pH 7.5, 40 C for 4 weeks
ustekinumab [11] = assay: Accelerated aging at 40° C. for 4 weeks, monomer by SE-HPLC (Example 58); assay type: physicochemical; conditions: excipient 100 mM, ustekinumab 2 mg/mL, 20 mM Histidine pH 6.0, 40° C. for 4 weeks
Method: 1 mL of each sample was aliquoted into 2 mL glass vials (West Pharmaceutical services, PA) and incubated at 40° C. for 4 weeks. The aliquots were withdrawn after 0, 1, 2, 3, and 4 weeks.

[12] = Caffeine solubility testing with co-solutes at ambient temperature (Examples 31-32); conditions: with co-solute
Method: Prepared solutions were used either neat or diluted with deionized water.
A small magnetic stir bar was added to the vial, and the solution was allowed to mix vigorously on a stir plate for about 10 minutes.

ustekinumab-FITC [13] = assay: Mechanical shear stability of ustekinumab-FITC, particle radius by DLS (Example 60); conditions: ustekinumab-FITC 1 mg/mL, 20 mM histidine pH 6, 300 rpm 72 h 23° C.
[14] = test system: bovine gamma globulin (BGG); assay: Normalized viscosity of BGG with caffeine and a secondary excipient (Example 40); assay type: physicochemical; conditions: Excipient A caffeine 15 mg/mL + Excipient B 14 mg/mL; BGG about 280 mg/mL, 20 mM histidine pH 6, 25° C.
infliximab [15] = assay: Thermal degradation assay at 55° C., normalized monomer loss rate by HP-SEC (Example 51); assay type: physicochemical; conditions: infliximab about 2 mg/mL, 20 mM phosphate pH 7, 55° C.
Method: ® infliximab was obtained from the Clinigen Group and reconstituted according to the instructions in the Janssen package insert, resulting in a 10 mg/mL infliximab solution in 5 mM phosphate buffer, pH about 7, with 50 mg/mL sucrose and 0.05 mg/mL polysorbate 80. The reconstituted drug product was then combined 1:1 by volume with 50 mM sodium acetate buffer at pH 5. The resulting solution was then injected onto a small preparative scale cation exchange column (GE Healthcare, Chicago, IL). After the infliximab was loaded onto the column, the column was washed with 10 column volumes of 50 mM sodium acetate buffer, pH 5. The infliximab was then eluted from the column with five column volumes of a 250 mM sodium chloride, 50 mM sodium acetate buffer at pH 5. […] Stock solutions of either 4 or 8 mg/mL infliximab in 20 mM phosphate buffer at pH 7 were then used in subsequent tests.
All excipients used in this Example, listed in Table 52 below, were of the highest purity, and were obtained from Sigma Aldrich (St. Louis, MO) or Cayman Chemical (Ann Arbor, MI). The stock infliximab solutions were mixed with stock excipient solutions containing the excipients listed in Table 52 formulated in 20 mM phosphate buffer, pH 7 to achieve a final infliximab concentration of about 2 mg/mL in each sample. The samples containing the infliximab solutions and the stock excipient solutions were then aliquoted into five 100 μL aliquots in PCR tubes. […] These stressed samples were then analyzed for monomer content by high performance size exclusion chromatography (HP-SEC) using an Agilent 1100 series HPLC equipped with a diode array detector monitoring absorbance at 280 nm. […] For each sample, the monomer peak area was divided by the monomer peak area obtained from an identical but unstressed sample to obtain the percent monomer remaining after exposure to thermal stress. The remaining monomer as a percentage of the unstressed sample was then plotted as a function of incubation time and the absolute value of the slope of a linear fit to the data was recorded as the monomer loss rate.

Compound: O=C(O)CC(O)(CC(=O)O)C(=O)O
Viscosity Reduction (%) [1]: 6.0%

% increased stability (ustekinumab [2]): 53.6% | Monomer Fraction % change from control (ustekinumab [3]): 8.4% | % change in stability (ustekinumab [4]): 32.2%
Compound: Nc1ncnc2c1ncn2[C@@H]1O[C@H](CO)[C@@H](O)[C@H]1O [Adenosine]

% increase in monomer content vs. control (ustekinumab [5]): 2.8% | % increase in monomer content vs. control (ustekinumab-FITC [6]): 63.41%
Compound: O=C[C@@H](O)[C@H](O)[C@H](O)[C@H](O)CO [Altrose]

Compound: OC[C@@H](O)C(O)[C@H](O)CO [Arabitol]
% increased stability (ustekinumab [2]): 2.7% | % reduction in light scattering at 350 nm vs. control (omalizumab [7]): 17.8% | Monomer Fraction % change from control (ustekinumab [3]): 6.0% | % change in stability (ustekinumab [4]): 3.4%

% increase in monomer content vs. control (omalizumab [8]): 10.02% | % increase in monomer content vs. control (ustekinumab [5]): 2.6% | % increase in monomer content vs. control (ustekinumab-FITC [6]): 79.95%
Compound: O=C1O[C@@H]([C@H](O)CO)[C@@H](O)[C@H]1O [Gulonolactone]

% decrease of A350 signal vs. control (omalizumab [9]): 69.0%
Compound: C[C@]1(OC(=O)/C=C/c2ccccc2)C[C@@H](O)[C@]2(O)C=CO[C@@H](O[C@@H]3O[C@H](CO)[C@@H](O)[C@H](O)[C@H]3O)[C@@H]21 [Harpagoside]

% change compared to control (infliximab [10]): 20.8% | % Monomer remaining (pembrolizumab): 82.1% | % Monomer remaining (nivolumab): 89.8%
Compound: O=C(O)[C@H](O)[C@@H](O)[C@H](O[C@@H]1O[C@H](CO)[C@H](O)[C@H](O)[C@H]1O)[C@H](O)CO [Lactobionic acid]

Compound: OC[C@H]1O[C@@](CO)(O[C@H]2O[C@H](CO)[C@@H](O)[C@H](O)[C@H]2O)[C@@H](O[C@H]2O[C@H](CO)[C@@H](O)[C@H](O)[C@H]2O)[C@@H]1O [Melzitose]
% increased stability (ustekinumab [2]): 4.7% | Monomer Fraction % change from control (ustekinumab [3]): 2.0% | % change in stability (ustekinumab [4]): 2.0%

Compound: C[C@H](CC[C@@H](O[C@@H]1O[C@H](CO[C@@H]2O[C@H](CO)[C@@H](O)[C@H](O)[C@H]2O)[C@@H](O)[C@H](O)[C@H]1O[C@@H]1O[C@H](CO)[C@@H](O)[C@H](O)[C@H]1O)C(C)(C)O)[C@H]1CC[C@@]2(C)[C@@H]3CC=C4[C@@H](CC[C@H](O[C@@H]5O[C@H](CO[C@@H]6O[C@H](CO)[C@@H](O)[C@H](O)[C@H]6O)[C@@H](O)[C@H](O)[C@H]5O)C4(C)C)[C@]3(C)[C@H](O)C[C@]12C [Mogroside V]
% decrease of A350 signal vs. control (omalizumab [9]): 68.2%

% increase in monomer content vs. control (ustekinumab [11]): 4.4% | % increase in monomer content vs. control (ustekinumab [5]): 3.1% | % increase in monomer content vs. control (ustekinumab-FITC [6]): 23.49%
Compound: CC(=O)N[C@@H]1C(O)O[C@H](CO)[C@@H](O)[C@@H]1O (stereo partly shown) [N-Acetyl Mannosamine]

% increase in monomer content vs. control (omalizumab [8]): 6.63%
Compound: CC(=O)N[C@@H]1C(O)O[C@H](CO)[C@@H](O)[C@@H]1O (stereo partly shown) [N-acetyl mannosamine]

% change compared to control (infliximab [10]): 13.1% | % Monomer remaining (pembrolizumab): 79.2% | % Monomer remaining (nivolumab): 85.6%
Compound: CO[C@H]1[C@H](O)[C@@H](O)[C@@H](O)[C@H](O)[C@@H]1O [Pinitol]

Compound: O=P([O-])([O-])[O-].[K+].[K+].[K+] [Potassium phosphate, potassium phosphate tribasic]
Viscosity Reduction (%) [1]: 9.3%

dissolution of caffeine relative to the reported caffeine solubility limit [12]: at least about four times
Compound: CCN(CC)CCOC(=O)c1ccc(N)cc1 [Procaine HCl, reference compound]

DLS particle radius (nm) after shear test (ustekinumab-FITC [13]; excipient 8.3 mg/mL): 6.2 nm
Compound: C=C1C[C@@]23CC[C@H]4[C@@](C)(CCC[C@@]4(C)C(=O)O[C@@H]4O[C@H](CO)[C@@H](O)[C@H](O)[C@H]4O)[C@@H]2CC[C@]1(O[C@@H]1O[C@H](CO)[C@@H](O)[C@H](O)[C@H]1O)C3 [Rubusoside]

dissolution of caffeine relative to the reported caffeine solubility limit [12]: at least about four times
Compound: O=C1NS(=O)(=O)c2ccccc21.[Na] [Saccharin, Na, saccharin sodium salt]

Compound: O=C(CO)[C@@H](O)[C@H](O)[C@H](O)[C@H](O)CO [Sedoheptulose]
% increased stability (ustekinumab [2]): 3.7% | % increase in monomer content vs. control (omalizumab [8]): 11.35% | % increase in monomer content vs. control (ustekinumab [11]): 7.7% | Monomer Fraction % change from control (ustekinumab [3]): 3.4% | % increase in monomer content vs. control (ustekinumab [5]): 4.1% | % increase in monomer content vs. control (ustekinumab-FITC [6]): 37.68% | % change in stability (ustekinumab [4]): 2.6%

Compound: O=S(=O)([O-])[O-].[Na+].[Na+] [Sodium sulfate]
Normalized Viscosity [14]: 0.78 | Viscosity Reduction (%) [1]: 5.8%

Compound: C[N+](C)(C)[O-] [Trimethyl amine N-oxide]
% change compared to control (infliximab [10]): 10.9%

Compound: O=C(CO)[C@@H](O[C@H]1O[C@H](CO)[C@@H](O)[C@H](O)[C@H]1O)[C@H](O)[C@H](O)CO [Turanose]
% increase in monomer content vs. control (omalizumab [8]): 75.99% | % increase in monomer content vs. control (ustekinumab [11]): 8.3% | % increase in monomer content vs. control (ustekinumab [5]): 5.8% | % increase in monomer content vs. control (ustekinumab-FITC [6]): 48.06%

Compound: Cl.NCCc1ccc(O)cc1 [Tyramine HCl]
dissolution of caffeine relative to the reported caffeine solubility limit [12]: at least about four times

% increase in monomer content vs. control (omalizumab [8]): 77.68% | Monomer loss rate (infliximab [15]; excipient 200 mM): 0.0737 % mon/min | Normalized monomer loss rate (infliximab [15]; excipient 200 mM): 0.460 | Monomer loss rate (infliximab [15]; excipient 250 mM): 0.0781 % mon/min | Normalized monomer loss rate (infliximab [15]; excipient 250 mM): 0.488 | % change in stability (ustekinumab [4]): 2.5%
Compound: OC[C@H]1O[C@H](O[C@H]2O[C@H](CO)[C@@H](O)[C@H](O)[C@H]2O)[C@H](O)[C@@H](O)[C@@H]1O [trehalose]

% decrease of A350 signal vs. control (omalizumab [9]): 73.2% | DLS particle radius (nm) after shear test (ustekinumab-FITC [13]; excipient 5 mg/mL): 6.4 nm
Compound: Madecassoside

% change compared to control (infliximab [10]): 12.6%
Compound: Maltotriose

% decrease of A350 signal vs. control (omalizumab [9]): 73.2% | DLS particle radius (nm) after shear test (ustekinumab-FITC [13]; excipient 5 mg/mL): 5.8 nm
Compound: Rebaudioside A
